In one data set the test system is CEM. The experiment in a line: MTT test (in vitro cytotoxicity). The note with it: Homo sapiens, CCRF-CEM, 72 hours. It counts as cell-based. As for the experimental part: (§1) The MMT test is a metabolic test used for evaluating the inhibition of proliferation of tumoral lines by a compound according to the invention. Several representative tumoral lines of different tumoral types such as breast cancer, colon cancer, otorhinolaryngological tumors, lung cancer, are incubated in a 96-well plate at variable concentrations of a compound according to the invention, for 72 hours and MTT is then added for a period of 1 hour. The MTT is a substrate of mitochondrial enzymes which is degraded in insoluble formazan blue. The crystals are then re-solubilized in isopropanol-HCl 0.1N and the plates are analyzed on an ELISA plate reader. Relative survival is calculated relatively to cells which have not been exposed to the compound according to the invention. The IC50 or inhibiting concentration 50 is the concentration value of the investigated compound according to the invention which induces a 50% reduction of proliferation relatively to the control.
(Tetrazolium dyes change colour on reduction, which living cells bring about.)

Another data set concerns SW48. Briefly: MTT test (in vitro cytotoxicity). It counts as cell-based. The note with it: Homo sapiens, 72 hours. As for the experimental part: as §1
The test system of the next data set is Messa. The experiment in a line: MTT test (in vitro cytotoxicity). The note with it: Homo sapiens, MES-SA, 72 hours. It counts as cell-based. As for the experimental part:
as §1

In a further data set the test system is L1210. The experiment in a line: MTT test (in vitro cytotoxicity). In kind it is cell-based. The note with it: Mus musculus, 72 hours. As for the experimental part: as §1
In another data set the test system is RL. The experiment in a line: MTT test (in vitro cytotoxicity). The note with it: Homo sapiens, 72 hours. In kind it is cell-based. As for the experimental part:
as §1

A further data set has as its system MCF7. The experiment in a line: MTT test (in vitro cytotoxicity). The note with it: Homo sapiens, 72 hours. It counts as cell-based. As for the experimental part: as §1
The subject of a further data set is NIH 3T3. The experiment in a line: MTT test (in vitro cytotoxicity). In kind it is cell-based. The note with it: Mus musculus, NIH3T3, 72 hours. As for the experimental part: as §1
The subject of the next data set is HNO 150. Briefly: MTT test (in vitro cytotoxicity). The note with it: 72 hours. It counts as cell-based. As for the experimental part: as §1
In the next data set the test system is HCT 116. Briefly: MTT test (in vitro cytotoxicity). In kind it is cell-based. The note with it: Homo sapiens, 72 hours. As for the experimental part:
as §1

In another data set the test system is K562. The experiment in a line: MTT test (in vitro cytotoxicity). In kind it is cell-based. The note with it: Homo sapiens, 72 hours. As for the experimental part:
as §1

The test system of another data set is N2A. The experiment in a line: MTT test (in vitro cytotoxicity). In kind it is cell-based. The note with it: Mus musculus, 72 hours. As for the experimental part:
as §1

For another data set, the system named is K562 cells. The experiment in a line: Cycle test: blocking in the G2/M phase evaluated by flow cytometry. In kind it is cell-based, human. The note with it: for G2/M inhibition in %: 24 hours, 10 μM, cells blocked in G2/M phase; for G2/M cycle blocking, dose-response (FIG. 1): concentration of the order of one micromolar. As for the experimental part: THE CYCLE TEST CORRESPONDS TO THE ANALYSIS OF THE BLOCKING IN THE G2/M PHASE OF A LINE OF HUMAN LEUKEMIC CELLS AS EVALUATED BY FLOW CYTOMETRY.
The k562 cells are incubated for 24 hours in the absence or in the presence of compounds according to the invention and/or reference compounds such as vincristine. In a first phase, the compounds are used at a concentration of 10 μM, whereby dose-response type studies may be carried out secondarily. After 24 hours the cells are exposed to propidium iodide, a DNA intercalating agent, and analyzed in flow cytometry. The results are expressed as a percentage of the cells blocked in the G2/M phase of the cell cycle.
In general terms: In flow cytometry, cells or beads pass a laser one at a time.

These results are taken from patent US20090182058A1, “Novel Chalcone Derivatives With Antimitotic Activity” (priority 2006, published 2009).

Broadly, the IC50 is the concentration that gives 50% inhibition. High values mean lower potency, low ones higher potency. The melting point is the temperature, or range, at which the solid turns liquid.

`COc1cccc(OC)c1/C=C/C(=O)c1c(OC)cccc1OC` [Compound A, reference compound]: the 50% inhibitory concentration (IC50) with CEM worked out at 6 µM; with SW48, 10 µM; in the data set on Messa it was 10 µM; in the data set on L1210, 34 µM; in the data set on RL, 40 µM; with MCF7 it was 75 µM. Also, the IC50 with NIH 3T3 was found to be 60 µM; in the data set with HNO 150 it was 62 µM; in the data set with HCT 116, 9 µM; in the data set with K562, 80 µM; in the data set with N2A, 55 µM. In addition, the “G2/M inhibition in %” value in the data set on K562 cells was determined as 78%. In addition, in the data set with K562 cells, the “G2/M cycle blocking, dose-response (FIG. 1)” value (shortened to “G2/M cycle blocking”) is recorded as “no activity”.
Molecule `COc1ccc(C(=O)/C=C/c2c(OC)cc(OC)cc2OC)c(O)c1` [Example 20, 2′-hydroxy-2,4,4′,6-tetramethoxychalcone] displayed a melting point of 167 °C.
On the same count and under the same terms, the result for `CCOc1cc(OCC)c(/C=C/C(=O)c2c(OCC)cc(OCC)cc2OCC)c(OCC)c1` [Example 10, 2,2′,4,4′,6,6′-hexaethoxychalcone] reads 160 °C; that for `COc1ccc(/C=C/C(=O)c2c(OC)cccc2OC)c(OC)c1OC` [Example 11, 2,2′,3,4,6′-pentamethoxychalcone], 129 °C.
In the case of `COc1cc(OC)c(/C=C/C(=O)c2c(OC)cccc2OC)c(OC)c1` [Example 1, 2,2′,4,6,6′-pentamethoxychalcone], the half-maximal inhibitory concentration (IC50) with CEM was found to be 0.65 µM; in the data set with SW48 it was 0.25 µM; with Messa, 1 µM; in the data set with L1210, 7 µM; in the data set on RL, 0.8 µM; with MCF7, 60 µM. Also, the IC50 with NIH 3T3 stood at 30 µM; in the data set on HNO 150, 1.3 µM; in the data set with HCT 116 it was 0.45 µM; in the data set on K562 it was 50 µM; in the data set with N2A, 2.2 µM. Further, the “G2/M inhibition in %” value in the data set with K562 cells is listed as 84%. In addition, in the data set with K562 cells, the “G2/M cycle blocking” value was “significant G2/M cycle blocking”.
The molecule `COc1cccc(OC)c1C(=O)/C=C/c1c(C)cc(C)cc1C` [Example 15, 2′,6′-dimethoxy-2,4,6-trimethylchalcone] yielded a melting point of 126 °C.
In the case of `COc1cc(/C=C/C(=O)c2c(OC)cccc2OC)cc(OC)c1OC` [Example 13, 2′,3,4,5,6′-pentamethoxychalcone], the melting point worked out at 136 °C.
As for `COc1cc(OC)c(C(=O)/C=C/c2c(OC)cccc2OC)c(OC)c1` [Example 18, 2,2′,4′,6,6′-pentamethoxychalcone], the melting point was 164 °C.
Same read-out and setting: then `COc1ccc(C(=O)/C=C/c2cc(OC)c(OC)c(OC)c2)c(O)c1` [Example 21, 2′-hydroxy-3,4,4′,5-tetramethoxychalcone], with 110 °C; and `COc1cc(OC)c(OC)cc1/C=C/C(=O)c1c(OC)cccc1OC` [Example 12, 2,2′,4,5,6′-pentamethoxychalcone], with 143 °C.
As to `COc1ccc(C(=O)/C=C/c2c(OC)cc(OC)cc2OC)c(OC)c1` [Example 3, 2,2′,4,4′,6-pentamethoxychalcone], the melting point turned out to be 162 °C. In addition, in the data set on K562 cells, the “G2/M inhibition in %” value is 86%.
`CCOc1cc(OCC)c(/C=C/C(=O)c2c(OC)cccc2OC)c(OCC)c1` [Example 8, 2′,6′-dimethoxy-2,4,6-triethoxychalcone] came in with a melting point of 154 °C.
On the same count and under the same terms, the result for `COc1cccc(OC)c1C(=O)/C=C/c1c(OC)c(F)c(OC)c(F)c1OC` [Example 14, 3,5-difluoro-2,2′,4,6,6′-pentamethoxychalcone] reads 108 °C; that for `COc1cc(OC)c(/C=C/C(=O)c2c(OC)cc(N)cc2OC)c(OC)c1` [Example 9, 4′-amino-2,2′,4,6,6′-pentamethoxychalcone], 188 °C.
Still for that read-out and setting: then `CCOc1cccc(OCC)c1C(=O)/C=C/c1c(OC)cc(OC)cc1OC` [Example 7, 2′,6′-diethoxy-2,4,6-trimethoxychalcone], with 102 °C.
In turn, `COc1cc(OC)c(/C=C/C(=O)c2c(OC)cc(OC)cc2OC)c(OC)c1` [Example 2, 2,2′,4,4′,6,6′-hexamethoxychalcone] showed a melting point of 150 °C. Half-maximal inhibition in the data set with CEM (IC50) required 1.9 µM. In the data set with SW48, this molecule displayed an IC50 of 0.8 µM. The same molecule showed a concentration for half-maximal inhibition (IC50) in the data set with Messa of 2.2 µM. Besides, the IC50 in the data set with L1210 was 8.5 µM. In the data set with RL, this molecule showed an IC50 of 0.9 µM. Further, inhibition with MCF7 was half-maximal at 52 µM (IC50). Also, half-maximal inhibition in the data set on NIH 3T3 (IC50) was put at 30 µM. For the same molecule, in the data set on HNO 150, inhibition was half-maximal at 10 µM (IC50). In the data set with HCT 116, this molecule had a half-inhibitory concentration (IC50) of 1 µM. Also, half-maximal inhibition in the data set with K562 (IC50) was put at 50 µM. This molecule registered a 50% inhibitory concentration (IC50) with N2A of 4 µM. In the data set with K562 cells, the “G2/M inhibition in %” value was 86% and the “G2/M cycle blocking” value was “significant G2/M cycle blocking”.
For the molecule `COc1ccc(C(=O)/C=C/c2cc(OC)c(OC)cc2OC)c(O)c1` [Example 19, 2′-hydroxy-2,4,4′,5-tetramethoxychalcone], the melting point turned out to be 170 °C.
In turn, `COc1ccc(/C=C/C(=O)c2c(OC)cc(OC)cc2OC)c(OC)c1` [Example 16, 2,2′,4,4′,6′-pentamethoxychalcone] showed a melting point of 105 °C.
Still for that read-out and setting: the result for `COc1ccc(C(=O)/C=C/c2ccc(OC)c(OC)c2OC)c(O)c1` [Example 22, 2′-hydroxy-2,3,4,4′-tetramethoxychalcone] reads 152 °C.
